Results reported in patent US9334289B2, “Cephem compound having catechol or pseudo-catechol structure” (SHIONOGI & CO., LTD., priority 2011, dated 2016).

What was measured:
Assay type in all cases: cell-based
[1] = test system: P. aeruginosa SR24; assay: MIC, CLSI broth microdilution, Test Example 1; details: Ceftazidime resistance strain, cation-adjusted Mueller Hinton broth containing human apo-transferrin, 5×10^5 cfu/mL
[2] = test system: A. baumannii SR27323; assay: MIC, CLSI broth microdilution, Test Example 1; details: OXA-23, OXA-58 carbapenemase producing strain, cation-adjusted Mueller Hinton broth containing human apo-transferrin, 5×10^5 cfu/mL
Experimental: (§1) Measurement of Minimum Inhibitory Concentration (MIC: μg/mL) was conducted according to CLSI (Clinical and Laboratory Standards Institute) method, and the amount of bacteria for inoculation was 5×10^5 cfu/mL, and cation-adjusted Mueller Hinton broth containing human apo-transferrin was used as a test medium, and the experiment was conducted using broth microdilution method. The bacteria used are listed below.

[3] = test system: E. coli ATCCBAA-199; assay: MIC, CLSI broth microdilution, Test Example 1; details: SHV-3 ESBL producing strain, cation-adjusted Mueller Hinton broth containing human apo-transferrin, 5×10^5 cfu/mL
Experimental: as §1

[4] = test system: E. coli ATCCBAA-200; assay: MIC, CLSI broth microdilution, Test Example 1; details: SHV-4 ESBL producing strain, cation-adjusted Mueller Hinton broth containing human apo-transferrin, 5×10^5 cfu/mL
Experimental: as §1

[5] = test system: K. pneumoniae ATCCBAA-1705; assay: MIC, CLSI broth microdilution, Test Example 1; details: KPC-2 carbapenemase producing strain, cation-adjusted Mueller Hinton broth containing human apo-transferrin, 5×10^5 cfu/mL
Experimental: as §1

[6] = test system: P. aeruginosa SR24837; assay: MIC, CLSI broth microdilution, Test Example 1; details: PER-1 ESBL producing strain, cation-adjusted Mueller Hinton broth containing human apo-transferrin, 5×10^5 cfu/mL
Experimental: as §1

[7] = test system: P. aeruginosa SR27060; assay: MIC, CLSI broth microdilution, Test Example 1; details: IMP-1 MBL producing strain (carbapenem resistance strain), cation-adjusted Mueller Hinton broth containing human apo-transferrin, 5×10^5 cfu/mL
Experimental: as §1

[8] = test system: A. baumannii SR01331; assay: MIC, CLSI broth microdilution, Test Example 2; details: Acinetobacter baumannii, SR01331; PER-1, OXA-23.51 ESBL- & OXA-type carbapenemase producing strain; cation-adjusted Iso-Sensitest broth containing human Apo-transferrin; 5×10^5 cfu/mL; read-out: Minimum Inhibitory Concentration (MIC) A. baumannii SR01331
Method in brief: (§2)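 CLSI microdilution; cation-adjusted Iso-Sensitest broth + human Apo-transferrin; 5×10^5 cfu/mL inoculum; MIC in μg/mL.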

[9] = test system: E. cloacae NCTC13464; assay: MIC, CLSI broth microdilution, Test Example 2; details: Enterobacter cloacae, NCTC13464; CTX-M group 9 ESBL producing strain; cation-adjusted Iso-Sensitest broth containing human Apo-transferrin; 5×10^5 cfu/mL; read-out: Minimum Inhibitory Concentration (MIC) E. cloacae NCTC 13464
Method in brief: as §2

[10] = test system: E. coli ATCCBAA-196; assay: MIC, CLSI broth microdilution, Test Example 2; details: Escherichia coli, ATCCBAA196; TEM-10 ESBL producing strain; cation-adjusted Iso-Sensitest broth containing human Apo-transferrin; 5×10^5 cfu/mL; read-out: Minimum Inhibitory Concentration (MIC) E. coli ATCC BAA-196
Method in brief: as §2

[11] = test system: E. coli ATCCBAA-200; assay: MIC, CLSI broth microdilution, Test Example 2; details: Escherichia coli, ATCCBAA200; SHV-4 ESBL producing strain; cation-adjusted Iso-Sensitest broth containing human Apo-transferrin; 5×10^5 cfu/mL; read-out: Minimum Inhibitory Concentration (MIC) E. coli ATCC BAA-200
Method in brief: as §2

[12] = test system: E. coli SR01337; assay: MIC, CLSI broth microdilution, Test Example 2; details: Escherichia coli, SR01337; TEM-1 ESBL producing strain; cation-adjusted Iso-Sensitest broth containing human Apo-transferrin; 5×10^5 cfu/mL; read-out: Minimum Inhibitory Concentration (MIC) E. coli SR01337
Method in brief: as §2

[13] = test system: K. pneumoniae ATCC700603; assay: MIC, CLSI broth microdilution, Test Example 2; details: Klebsiella pneumoniae, ATCC700603; SHV18 ESBL producing strain; cation-adjusted Iso-Sensitest broth containing human Apo-transferrin; 5×10^5 cfu/mL; read-out: Minimum Inhibitory Concentration (MIC) K. pneumoniae ATCC 700603
Method in brief: as §2

[14] = test system: P. aeruginosa SR01332; assay: MIC, CLSI broth microdilution, Test Example 2; details: Pseudomonas aeruginosa, SR01332; VIM-11 MBL producing strain (carbapenem resistance strain); cation-adjusted Iso-Sensitest broth containing human Apo-transferrin; 5×10^5 cfu/mL; read-out: Minimum Inhibitory Concentration (MIC) P. aeruginosa SR01332
Method in brief: as §2

[15] = test system: P. aeruginosa SR01335; assay: MIC, CLSI broth microdilution, Test Example 2; details: Pseudomonas aeruginosa, SR01335; VIM-1 like MBL producing strain (carbapenem resistance strain); cation-adjusted Iso-Sensitest broth containing human Apo-transferrin; 5×10^5 cfu/mL; read-out: Minimum Inhibitory Concentration (MIC) P. aeruginosa SR01335
Method in brief: as §2

## CC(C)(O/N=C(\C(=O)N[C@@H]1C(=O)N2C(c3nnn[n-]3)=C(C[N+]3(C)[C@@H]4CC[C@H]3C[C@@H](NC(=O)c3ccc(O)c(O)c3Cl)C4)CS[C@H]12)c1nc(N)sc1Cl)C(=O)[O-].[Na+] (stereo partly shown) [Compound I-86]
[1]; Pseudomonas aeruginosa, SR24, read-out: Minimum Inhibitory Concentration (MIC) P. aeruginosa SR24
  MIC: 0.063 µg/mL
[2]; Acinetobacter baumannii, SR27323, read-out: Minimum Inhibitory Concentration (MIC) A. baumannii SR27323
  MIC: 2 µg/mL
[3]; Escherichia coli, ATCCBAA199, read-out: Minimum Inhibitory Concentration (MIC) E. coli ATCC BAA-199
  MIC: 0.5 µg/mL
[4]; Escherichia coli, ATCCBAA200, read-out: Minimum Inhibitory Concentration (MIC) E. coli ATCC BAA-200
  MIC: 0.5 µg/mL
[5]; Klebsiella pneumoniae, ATCCBAA1705, read-out: Minimum Inhibitory Concentration (MIC) K. pneumoniae ATCCBAA-1705
  MIC: 0.063 µg/mL
[6]; Pseudomonas aeruginosa, SR24837, read-out: Minimum Inhibitory Concentration (MIC) P. aeruginosa SR24837
  MIC: ≤ 0.031 µg/mL
[7]; Pseudomonas aeruginosa, SR27060, read-out: Minimum Inhibitory Concentration (MIC) P. aeruginosa SR27060
  MIC: 0.25 µg/mL
[8]
  MIC: 0.5 µg/mL
[9]
  MIC: 0.5 µg/mL
[10]
  MIC: 0.125 µg/mL
[11]
  MIC: 1 µg/mL
[12]
  MIC: ≤ 0.031 µg/mL
[13]
  MIC: 0.25 µg/mL
[14]
  MIC: 8 µg/mL
[15]
  MIC: 4 µg/mL

## C[N+](C)(CCNC(=O)c1ccc(O)c(O)c1Cl)CC1=C(c2nnn[n-]2)N2C(=O)C(NC(=O)C(=NOC(CC(=O)[O-])C(=O)[O-])c3csc(N)n3)C2SC1.[Na+].[Na+] (stereo not shown) [Compound I-92]
[1]
  Minimum Inhibitory Concentration (MIC) P. aeruginosa SR24: 0.25 µg/mL
[2]
  Minimum Inhibitory Concentration (MIC) A. baumannii SR27323: 0.5 µg/mL
[3]
  Minimum Inhibitory Concentration (MIC) E. coli ATCC BAA-199: 0.063 µg/mL
[4]
  Minimum Inhibitory Concentration (MIC) E. coli ATCC BAA-200: 0.125 µg/mL
[5]
  Minimum Inhibitory Concentration (MIC) K. pneumoniae ATCCBAA-1705: ≦0.031 μg/ml
[6]
  Minimum Inhibitory Concentration (MIC) P. aeruginosa SR24837: 0.25 µg/mL
[7]
  Minimum Inhibitory Concentration (MIC) P. aeruginosa SR27060: 2 µg/mL
